{"source": "patent US5705687A", "about": "“Neurotropic drug and method for preparation of same” (priority 1993, dated 1998)", "system": "mice", "assay": "Conditioned reaction of passive avoidance (CPRA), amnesia by electric shock", "assay_type": "in vivo", "conditions": "for Latent period after training: 24 h, amnesia control 31.1; for % effect (latent period): control + amnesia 91.2, w/o amnesia 288.1; for Δt, increase in latent period (t ± m, sec): amnesia control -3 ± 6", "description": "The effect produced by the new substance on the processes of the central nervous system was examined on the model of one-time training of mice, of conditioned reaction of passive avoidance (CPRA), where the amnesic effect was produced by electric shock. During the tests, a two-section chamber was used to condition a certain reflex to the lit and darkened sections. First, for two minutes, the amount of time was registered, that a mouse spent in the lit section before entering the darkened section. Then, while in the darkened section, the animal would receive a single electric shock through the electrode floor (training). The training was immediately followed by an electric shock (50 Hz, 0.2 see). […] The substance was intraperitoneally administered 40 min. prior to the start of the training, the control group received a physiological solution. […] The anti-amnesic properties of the new compound are represented by an increase in the latent period before and after the training. (Δt)", "note": "Where a name gives a salt, the structure may show the parent alone.", "data": [{"smiles": "CC(C)(CO)C(=O)C(=O)NCCCC(=O)O", "note": "[KPA-Ca, calcium salt of ketopantoyl aminobutyrate]", "values": [{"measurement": "Latent period before training", "setting": "10 mg/kg i.p., 40 min before training", "result": 27.1, "unit": "s"}, {"measurement": "Latent period after training", "setting": "10 mg/kg i.p.", "result": 90.3, "unit": "s"}, {"measurement": "% effect (latent period)", "setting": "10 mg/kg i.p.", "result": 334.4, "unit": "%"}, {"measurement": "Δt, increase in latent period (t ± m, sec)", "setting": "10 mg/kg i.p., spread 12.6, P < 0.01", "result": 63.2, "unit": "s"}, {"measurement": "Latent period before training", "setting": "25 mg/kg i.p.", "result": 31.4, "unit": "s"}, {"measurement": "Latent period after training", "setting": "25 mg/kg i.p.", "result": 102.4, "unit": "s"}, {"measurement": "Δt, increase in latent period (t ± m, sec)", "setting": "25 mg/kg i.p., P < 0.001", "result": "71 ± 9", "unit": "s"}, {"measurement": "% effect (latent period)", "setting": "25 mg/kg i.p.", "result": 396.1, "unit": "%"}, {"measurement": "Latent period before training", "setting": "50 mg/kg i.p.", "result": 30.6, "unit": "s"}, {"measurement": "Latent period after training", "setting": "50 mg/kg i.p.", "result": 77.8, "unit": "s"}, {"measurement": "% effect (latent period)", "setting": "50 mg/kg i.p.", "result": 254.2, "unit": "%"}, {"measurement": "Δt, increase in latent period (t ± m, sec)", "setting": "50 mg/kg i.p., spread 13.3, P < 0.01", "result": 47.2, "unit": "s"}, {"measurement": "Latent period before training", "setting": "100 mg/kg i.p.", "result": 31.8, "unit": "s"}, {"measurement": "Latent period after training", "setting": "100 mg/kg i.p.", "result": 82.8, "unit": "s"}, {"measurement": "Δt, increase in latent period (t ± m, sec)", "setting": "100 mg/kg i.p., P < 0.01", "result": "51 ± 14.1", "unit": "s"}, {"measurement": "% effect (latent period)", "setting": "100 mg/kg i.p.", "result": 260.4, "unit": "%"}, {"measurement": "anti-amnesic effect (in words)", "setting": "electric shock amnesia", "result": "counteracted the amnesic effect of the electric shock"}]}]}
